Test results from patent US20180185301A1, “PHARMACEUTICAL COMPOSITIONS COMPRISING POLYALKYLENE GLYCOL DERIVATIVES” (Symrise AG, priority 2015, published 2018).

Target: T1, PAR-2 (Homo sapiens, UniProt P55085)
T1 construct: human embryonic kidney 293 cells (HEK293) endogenously expressing PAR-2; endogenous in cells; host or cells: HEK293
T1 sequence (P55085 26-397): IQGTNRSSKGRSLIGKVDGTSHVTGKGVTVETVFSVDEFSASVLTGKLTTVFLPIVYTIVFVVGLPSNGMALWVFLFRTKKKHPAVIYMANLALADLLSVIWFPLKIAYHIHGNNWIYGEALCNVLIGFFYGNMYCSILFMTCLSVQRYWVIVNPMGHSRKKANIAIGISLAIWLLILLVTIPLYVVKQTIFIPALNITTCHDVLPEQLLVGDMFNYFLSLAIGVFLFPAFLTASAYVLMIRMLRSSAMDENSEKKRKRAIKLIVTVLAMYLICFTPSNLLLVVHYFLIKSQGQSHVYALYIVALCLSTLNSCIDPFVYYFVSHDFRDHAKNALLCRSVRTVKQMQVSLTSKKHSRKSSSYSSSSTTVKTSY
Assay: In vitro PAR-2 assay (trypsin-evoked calcium signal, Fluo-4)
Assay type: cell-based
Settings: for IC50: HEK293 cells endogenously expressing PAR-2, in the presence of 4 nM trypsin, calcium imaging
Protocol: Assay Principle: A cellular in vitro assay was developed with human embryonic kidney 293 cells (HEK293) endogenously expressing PAR-2. The PAR-2 activating protease trypsin (EC50: ˜1 nM) was used as an agonistic stimulus with subsequent Fluo-4 dependent intracellular calcium detection (calcium imaging).
A cell-based calcium assay was applied for the identification of PAR-2 antagonistic effects of polyethylene glycol esters and polyethylene glycol ethers. Functional modulation of PAR-2 by the tested compounds was measured and quantified using the calcium sensitive fluorescent probe Fluo-4 AM on a fluorescence microplate reader. Activation of PAR-2 by an agonist (trypsin) led to an increase in the intracellular calcium concentration and thus an increase in fluorescence intensity.
Human embryonic kidney 293 cells (HEK293) endogenously expressing PAR-2 were cultured in DMEM (high glucose) supplemented with tetracycline-free FCS (10% v/v), L-glutamine (4 mM), blasticidin (15 μg/ml), zeocin (100 μg/ml) and puromycin (2 μg/ml) in a water-saturated atmosphere at 37° C. and 5% CO2.
Cells were seeded onto 96-well clear-bottom black-walled assay plates at a density of 45.000 cells per well in 100 μl of cell culture medium. Intracellular calcium increase in the living cells due to receptor activation was monitored 24 h later using the calcium sensitive fluorescent probe Fluo-4 AM on a fluorescence microplate reader (FlexStation® system, Molecular Devices). […]
Medium was replaced with 150 μl KH buffer supplemented with sulfinpyrazone (250 μM). Subsequently, 50 μl KH buffer supplemented with the screening compounds or control substances were added and the cells were incubated for 10 min. under assay conditions in the microplate reader. Changes in fluorescence were recorded at 37° C. after addition of 50 μl KH buffer supplemented with the PAR-2 agonist trypsin (final concentration of 4 nM under measurement conditions).
Calcium mobilization was quantified as the change of peak fluorescence (ΔF) over the baseline level (F). The data was analysed with the software of the microplate reader. […]

IC50	EC50 (HEK293 cells, Fluo-4 calcium detection, read-out: EC50 of PAR-2 activating protease (agonistic stimulus))	Substance
100 µM	–	PEG-5 Isononanoate
65 µM	–	PEG-9 Tridecylether
–	~0.001 µM	trypsin [reference compound]
